Where a SMILES comes first, the peptide text is derived from it. [ ]: non-standard residue; d: D form. The star is where a group is joined. Phe(4-NO2) = N[C@@H](Cc1ccc([N+](=O)[O-])cc1)C(=O)O; Palmitoyl = CCCCCCCCCCCCCCCC(=O)*; Myristoyl = CCCCCCCCCCCCCC(=O)*; Nle = CCCC[C@H](N)C(=O)O; Octanoyl = CCCCCCCC(=O)*
Tested on: fasted C57BL/6 mice
Test: Food intake in fasted mice after SC administration
Assay type: in vivo, mouse
Settings: fasted C57BL/6 mice, 5 mg/kg SC, 45 min
Procedure: Male C57BL/6 mice (An Lab, Prague 4) were bred in the accredited animal facility in the Institute of Organic Chemistry and Biochemistry, Czech Academy of Sciences, Prague, at the Institute of Molecular Genetics, Prague 4, at the temperature of 22±2° C. with access to food and water ad libitum. The day/night cycle was 12/12 hours (light turned on at 6:00 am). Animals were treated according to the Animal Protection Act (Act No. 246/1992). The males were fed standard chow diet St-1 (Mlýn Kocanda, Praha, Czech Republic) which contained 66% saccharides, 25% proteins and 9% lipids with a caloric value of 3.4 kcal/g.
The food was withdrawn 17 hours prior to injection of lipidated peptide and free access to water was maintained. The administration of saline, PrRP or lipidated analogs was performed either by SC injection at doses of 1-10 mg/kg (volume 0.2 ml/mouse), or by ICV using infusion pump (cannulae were inserted into the third brain ventricle 4 days before the experiment following the procedure of Maixnerová et al. (Maixnerová et al., 2011)). The single dose of peptide was 4 nmol/mouse (5 μl/mouse).
Fifteen minutes after the lipidated peptide administration, the mice were given pre-weighed food. The food was then weighed every 30 minutes for 5-10 hours. The administration of every dose was performed at least twice and one group of mice consisted of at least 6 mice. The results were presented as % of food intake as compared with the control group injected with saline.
Statistical evaluation was performed using program Graph-Pad Prism Software (San Diego, Calif., USA), and the one-way ANOVA with a subsequent Dunnettovým post-hoc test. The difference in food intake between mice injected with saline and mice injected with the examined peptide were considered statistically significant at P<0.05.

Row | SMILES | Food intake in mice (5 mg/kg SC) % saline-treated group (45 min)
1 | CCCCCCCCCCCCCCCC(=O)N[C@@H](CO)C(=O)N[C@@H](CCCNC(=N)N)C(=O)N[C@@H](C)C(=O)N[C@@H](Cc1c[nH]cn1)C(=O)N[C@@H](CCC(N)=O)C(=O)N[C@@H](Cc1c[nH]cn1)C(=O)N[C@@H](CO)C(=O)N[C@@H](CCCC)C(=O)N[C@@H](CCC(=O)O)C(=O)N[C@H](C(=O)N[C@@H](CCCNC(=N)N)C(=O)N[C@H](C(=O)N1CCC[C@H]1C(=O)N[C@@H](CC(=O)O)C(=O)N[C@H](C(=O)N[C@@H](CC(N)=O)C(=O)N1CCC[C@H]1C(=O)N[C@@H](C)C(=O)N[C@@H](Cc1c[nH]c2ccccc12)C(=O)N[C@@H](Cc1ccc(O)cc1)C(=O)N[C@H](C(=O)NCC(=O)N[C@@H](CCCNC(=N)N)C(=O)NCC(=O)N[C@H](C(=O)N[C@@H](CCCNC(=N)N)C(=O)N1CCC[C@H]1C(=O)N[C@H](C(=O)NCC(=O)N[C@@H](CCCNC(=N)N)C(=O)N[C@@H](Cc1ccc([N+](=O)[O-])cc1)C(N)=O)C(C)C)[C@@H](C)CC)[C@@H](C)O)[C@@H](C)CC)[C@@H](C)O)[C@@H](C)O [Analog 29] (Palmitoyl-SRAHQHS[Nle]ETRTPDINPAWYTGRGIRPVGR[Phe(4-NO2)]-NH2) | 0.7%
2 | CCCCCCCCCCCCCC(=O)N[C@@H](CO)C(=O)N[C@@H](Cc1c[nH]cn1)C(=O)N[C@@H](CCC(N)=O)C(=O)N[C@@H](CCCNC(=N)N)C(=O)N1CCC[C@H]1C(=O)N[C@@H](C)C(=O)N[C@@H](CC(=O)O)C(=O)N[C@H](C(=O)N[C@@H](Cc1c[nH]cn1)C(=O)N[C@@H](Cc1c[nH]c2ccccc12)C(=O)N[C@@H](Cc1ccc(O)cc1)C(=O)N1CCC[C@H]1C(=O)N[C@@H](CCCNC(=N)N)C(=O)NCC(=O)N[C@@H](CCCC)C(=O)N[C@@H](Cc1ccccc1)C(=O)N1CCC[C@H]1C(=O)N[C@H](C(=O)N[C@H](C(=O)NCC(=O)N[C@@H](CCCNC(=N)N)C(=O)N[C@H](C(=O)N[C@H](C(=O)N[C@@H](C)C(=O)N[C@@H](CCCNC(=N)N)C(=O)N[C@@H](CC(N)=O)C(=O)NCC(=O)N[C@@H](CCC(=O)O)C(=O)N[C@H](C(=O)N[C@@H](CO)C(=O)N[C@@H](CCCNC(=N)N)C(=O)O)C(C)C)[C@@H](C)O)[C@@H](C)CC)[C@@H](C)CC)[C@@H](C)O)[C@@H](C)O [Analog 31] (Myristoyl-SHQRPADTHWYPRG[Nle]FPTIGRITARNGEVSR-OH; C-terminus assumed) | 100%
3 | CCCCCCCCCCCCCCCC(=O)N[C@@H](CO)C(=O)N[C@@H](CCCNC(=N)N)C(=O)N[C@@H](C)C(=O)N[C@@H](Cc1c[nH]cn1)C(=O)N[C@@H](CCC(N)=O)C(=O)N[C@@H](Cc1c[nH]cn1)C(=O)N[C@@H](CO)C(=O)N[C@@H](CCCC)C(=O)N[C@@H](CCC(=O)O)C(=O)N[C@H](C(=O)N[C@@H](CCCNC(=N)N)C(=O)N[C@H](C(=O)N1CCC[C@H]1C(=O)N[C@@H](CC(=O)O)C(=O)N[C@H](C(=O)N[C@@H](CC(N)=O)C(=O)N1CCC[C@H]1C(=O)N[C@@H](C)C(=O)N[C@@H](Cc1c[nH]c2ccccc12)C(=O)N[C@@H](Cc1ccc(O)cc1)C(=O)N[C@H](C(=O)NCC(=O)N[C@@H](CCCNC(=N)N)C(=O)NCC(=O)N[C@H](C(=O)N[C@@H](CCCNC(=N)N)C(=O)N1CCC[C@H]1C(=O)N[C@H](C(=O)NCC(=O)N[C@@H](CCCNC(=N)N)C(=O)N[C@@H](Cc1ccc(O)cc1)C(N)=O)C(C)C)[C@@H](C)CC)[C@@H](C)O)[C@@H](C)CC)[C@@H](C)O)[C@@H](C)O [Analog 35] (Palmitoyl-SRAHQHS[Nle]ETRTPDINPAWYTGRGIRPVGRY-NH2) | 22%
4 | CCCCCCCCCCCCCC(=O)N[C@H](Cc1ccccc1)C(=O)N[C@H](CCCNC(=N)N)C(=O)NCC(=O)N[C@H](C(=O)N1CCC[C@H]1C(=O)N[C@@H](CCCNC(=N)N)C(=O)N[C@H](C(=O)NCC(=O)N[C@@H](CCCNC(=N)N)C(=O)NCC(=O)N[C@H](C(=O)N[C@@H](Cc1ccc(O)cc1)C(=O)N[C@@H](Cc1c[nH]c2ccccc12)C(=O)N[C@@H](C)C(=O)N1CCC[C@H]1C(=O)N[C@@H](CC(N)=O)C(=O)N[C@H](C(=O)N[C@@H](CC(=O)O)C(=O)N1CCC[C@H]1C(=O)N[C@H](C(N)=O)[C@@H](C)O)[C@@H](C)CC)[C@@H](C)O)[C@@H](C)CC)C(C)C [Analog 37] (Myristoyl-[dF][dR]GVPRIGRGTYWAPNIDPT-NH2) | 100%
5 | CC[C@H](C)[C@H](NC(=O)CNC(=O)[C@H](CCCNC(=N)N)NC(=O)[C@H](CO)NC(=O)[C@H](C)NC(=O)[C@H](Cc1ccc(O)cc1)NC(=O)[C@H](Cc1c[nH]c2ccccc12)NC(=O)[C@H](C)NC(=O)[C@@H]1CCCN1C(=O)[C@H](CC(N)=O)NC(=O)[C@@H](NC(=O)[C@H](CC(=O)O)NC(=O)[C@@H]1CCCN1C(=O)[C@@H](NC(=O)[C@H](CCCNC(=N)N)NC(=O)[C@@H](NC(=O)[C@H](CCC(=O)O)NC(=O)[C@H](CCSC)NC(=O)[C@H](CO)NC(=O)[C@H](Cc1c[nH]cn1)NC(=O)[C@H](CCCNC(=N)N)NC(=O)[C@H](Cc1c[nH]cn1)NC(=O)[C@@H](NC(=O)[C@H](CCCNC(=N)N)NC(=O)[C@@H](N)CO)[C@@H](C)O)[C@@H](C)CC)[C@@H](C)O)[C@@H](C)CC)C(=O)N[C@@H](CCCNC(=N)N)C(=O)N1CCC[C@H]1C(=O)N[C@H](C(=O)NCC(=O)N[C@@H](CCCNC(=N)N)C(=O)N[C@@H](Cc1ccccc1)C(N)=O)C(C)C [Analog 50] | 100%
6 | CCCCCCCC(=O)N[C@H](C(=O)N1CCC[C@H]1C(=O)N[C@@H](CC(=O)O)C(=O)N[C@H](C(=O)N[C@@H](CC(N)=O)C(=O)N1CCC[C@H]1C(=O)N[C@@H](C)C(=O)N[C@@H](Cc1c[nH]c2ccccc12)C(=O)N[C@@H](Cc1ccc(O)cc1)C(=O)N[C@@H](C)C(=O)N[C@@H](CO)C(=O)N[C@@H](CCCNC(=N)N)C(=O)NCC(=O)N[C@H](C(=O)N[C@@H](CCCNC(=N)N)C(=O)N1CCC[C@H]1C(=O)N[C@H](C(=O)NCC(=O)N[C@@H](CCCNC(=N)N)C(=O)N[C@@H](Cc1ccccc1)C(N)=O)C(C)C)[C@@H](C)CC)[C@@H](C)CC)[C@@H](C)O [Analog 52] (Octanoyl-TPDINPAWYASRGIRPVGRF-NH2) | 100%
7 | CCCCCCCCCCCCCC(=O)N[C@@H](CO)C(=O)N[C@@H](CCCNC(=N)N)C(=O)N[C@H](C(=O)N[C@@H](Cc1c[nH]cn1)C(=O)N[C@@H](CCCNC(=N)N)C(=O)N[C@@H](Cc1c[nH]cn1)C(=O)N[C@@H](CO)C(=O)N[C@@H](CCSC)C(=O)N[C@@H](CCC(=O)O)C(=O)N[C@H](C(=O)N[C@@H](CCCNC(=N)N)C(=O)N[C@H](C(=O)N1CCC[C@H]1C(=O)N[C@@H](CC(=O)O)C(=O)N[C@H](C(=O)N[C@@H](CC(N)=O)C(=O)N1CCC[C@H]1C(=O)N[C@@H](C)C(=O)N[C@@H](Cc1c[nH]c2ccccc12)C(=O)N[C@@H](Cc1ccc(O)cc1)C(=O)N[C@@H](C)C(=O)N[C@@H](CO)C(=O)N[C@@H](CCCNC(=N)N)C(=O)NCC(=O)N[C@H](C(=O)N[C@@H](CCCNC(=N)N)C(=O)N1CCC[C@H]1C(=O)N[C@H](C(=O)NCC(=O)N[C@@H](CCCNC(=N)N)C(=O)N[C@@H](Cc1ccccc1)C(N)=O)C(C)C)[C@@H](C)CC)[C@@H](C)CC)[C@@H](C)O)[C@@H](C)CC)[C@@H](C)O [Analog 56] | 35%
8 | CCCCCCCCCCCCCCCC(=O)N[C@@H](CO)C(=O)N[C@@H](CCCNC(=N)N)C(=O)N[C@H](C(=O)N[C@@H](Cc1c[nH]cn1)C(=O)N[C@@H](CCCNC(=N)N)C(=O)N[C@@H](Cc1c[nH]cn1)C(=O)N[C@@H](CO)C(=O)N[C@@H](CCSC)C(=O)N[C@@H](CCC(=O)O)C(=O)N[C@H](C(=O)N[C@@H](CCCNC(=N)N)C(=O)N[C@H](C(=O)N1CCC[C@H]1C(=O)N[C@@H](CC(=O)O)C(=O)N[C@H](C(=O)N[C@@H](CC(N)=O)C(=O)N1CCC[C@H]1C(=O)N[C@@H](C)C(=O)N[C@@H](Cc1c[nH]c2ccccc12)C(=O)N[C@@H](Cc1ccc(O)cc1)C(=O)N[C@@H](C)C(=O)N[C@@H](CO)C(=O)N[C@@H](CCCNC(=N)N)C(=O)NCC(=O)N[C@H](C(=O)N[C@@H](CCCNC(=N)N)C(=O)N1CCC[C@H]1C(=O)N[C@H](C(=O)NCC(=O)N[C@@H](CCCNC(=N)N)C(=O)N[C@@H](Cc1ccccc1)C(N)=O)C(C)C)[C@@H](C)CC)[C@@H](C)CC)[C@@H](C)O)[C@@H](C)CC)[C@@H](C)O [Analog 57] | 11%
9 | CCCCCCCCCCCCCC(=O)N[C@@H](CO)C(=O)N[C@@H](CCCNC(=N)N)C(=O)N[C@@H](C)C(=O)N[C@@H](Cc1c[nH]cn1)C(=O)N[C@@H](CCC(N)=O)C(=O)N[C@@H](Cc1c[nH]cn1)C(=O)N[C@@H](CO)C(=O)N[C@@H](CCSC)C(=O)N[C@@H](CCC(=O)O)C(=O)N[C@H](C(=O)N[C@@H](CCCNC(=N)N)C(=O)N[C@H](C(=O)N1CCC[C@H]1C(=O)N[C@@H](CC(=O)O)C(=O)N[C@H](C(=O)N[C@@H](CC(N)=O)C(=O)N1CCC[C@H]1C(=O)N[C@@H](C)C(=O)N[C@@H](Cc1c[nH]c2ccccc12)C(=O)N[C@@H](Cc1ccc(O)cc1)C(=O)N[C@H](C(=O)NCC(=O)N[C@@H](CCCNC(=N)N)C(=O)NCC(=O)N[C@H](C(=O)N[C@@H](CCCNC(=N)N)C(=O)N1CCC[C@H]1C(=O)N[C@H](C(=O)NCC(=O)N[C@@H](CCCNC(=N)N)C(=O)N[C@@H](Cc1ccccc1)C(N)=O)C(C)C)[C@@H](C)CC)[C@@H](C)O)[C@@H](C)CC)[C@@H](C)O)[C@@H](C)O [Analog 60] (Myristoyl-SRAHQHSMETRTPDINPAWYTGRGIRPVGRF-NH2) | 20%

Source: patent US9937235B2, “Lipidated peptides as anti-obesity agents” (USTAV ORGANICKE CHEMIE A BIOCHEMIE AKADEMIE VED CR, V.V.I, priority 2012, dated 2018)
